# Measured values as given in patent US8940744B2, “Pyrazolopyrimidine compounds as kinase inhibitors” (Principia Biopharma Inc., priority 2012, dated 2015).
# Target: human recombinant Btk (Homo sapiens (Human), UniProt Q06187)
# Assay: Btk Enzymatic Activity Assay (Caliper-based kinase assay)
# Type: biochemical
# Settings: not given
# Protocol: A Caliper-based kinase assay (Caliper Life Sciences, Hopkinton, Mass.) was used to measure inhibition of Btk kinase activity of a compound of the present disclosure. […] The reaction was then terminated with EDTA, final concentration 20 mM and the phosphorylated reaction product was quantified on a Caliper Desktop Profiler (Caliper LabChip 3000). […] This value is presented as the IC50.
# Sequence of human recombinant Btk (Q06187 whole entry): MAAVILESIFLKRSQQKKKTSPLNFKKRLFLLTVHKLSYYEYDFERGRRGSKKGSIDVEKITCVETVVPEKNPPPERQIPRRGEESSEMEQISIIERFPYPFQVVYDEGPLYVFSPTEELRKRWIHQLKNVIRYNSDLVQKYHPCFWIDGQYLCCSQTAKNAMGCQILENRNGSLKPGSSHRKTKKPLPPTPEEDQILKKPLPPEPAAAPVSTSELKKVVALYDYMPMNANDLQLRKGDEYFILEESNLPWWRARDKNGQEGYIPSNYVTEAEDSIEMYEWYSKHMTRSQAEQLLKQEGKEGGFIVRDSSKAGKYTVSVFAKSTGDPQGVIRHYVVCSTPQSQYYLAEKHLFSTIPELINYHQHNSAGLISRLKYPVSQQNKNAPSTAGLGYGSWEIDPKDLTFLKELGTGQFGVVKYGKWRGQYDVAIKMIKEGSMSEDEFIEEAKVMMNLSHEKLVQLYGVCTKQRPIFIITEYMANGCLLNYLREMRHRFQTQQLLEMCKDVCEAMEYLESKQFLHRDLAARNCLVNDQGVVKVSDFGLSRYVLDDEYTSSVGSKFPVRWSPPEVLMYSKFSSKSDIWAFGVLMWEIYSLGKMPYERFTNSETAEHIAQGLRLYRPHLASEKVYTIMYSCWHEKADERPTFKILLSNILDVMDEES
row,SMILES,IC50 [nM]
1,"CN1CCN(C(C)(C)C=C(C#N)C(=O)N2CCC[C@H]2Cn2nc(-c3ccc(Oc4ccccc4)cc3F)c3c(N)ncnc32)CC1 [Example 8, 2-[(2S)-2-[[4-amino-3-(2-fluoro-4-phenoxyphenyl)pyrazolo[3,4-d]pyrimidin-1-yl]-methyl]pyrrolidine-1-carbonyl]-4-methyl-4-(4-methylpiperazin-1-yl)pent-2-enenitrile]",3.8
2,"CCN1CCN(C(C)(C)C=C(C#N)C(=O)N2CCC[C@H]2Cn2nc(-c3ccc(Oc4ccccc4)cc3F)c3c(N)ncnc32)CC1 [Example 8A, 2-[(2S)-2-[[4-amino-3-(2-fluoro-4-phenoxyphenyl)pyrazolo[3,4-d]pyrimidin-1-yl]-methyl]pyrrolidine-1-carbonyl]-4-methyl-4-(4-ethylpiperazin-1-yl)pent-2-enenitrile]",0.9
3,"CC(C)(C=C(C#N)C(=O)N1CCC[C@H]1Cn1nc(-c2ccc(Oc3ccccc3)cc2F)c2c(N)ncnc21)N1CC2(COC2)C1 [Example 19a, (S)-2-(2-((4-amino-3-(2-fluoro-4-phenoxyphenyl)-1H-pyrazolo[3,4-d]pyrimidin-1-yl)methyl)pyrrolidine-1-carbonyl)-4-methyl-4-(2-oxa-6-azaspiro[3.3]heptan-6-yl)pent-2-enenitrile]",5.6

# Same assay, conditions: human recombinant Btk 0.5 nM, ATP 16 μM, room temperature 3 h
row,SMILES,IC50 [nM]
1,"CC(C)(C=C(C#N)C(=O)N1CCC[C@H]1Cn1nc(-c2ccc(Oc3ccccc3)cc2F)c2c(N)ncnc21)N1CCCC1 [Example 5, (S)-2-(2-((4-amino-3-(2-fluoro-4-phenoxyphenyl)-1H-pyrazolo[3,4-d]-pyrimidin-1-yl)-methyl)pyrrolidine-1-carbonyl)-4-methyl-4-(pyrrolidin-1-yl)pent-2-enenitrile]",1.9
2,"CC(C)(C=C(C#N)C(=O)N1CCC[C@@H](n2nc(-c3ccc(Oc4ccccc4)cc3F)c3c(N)ncnc32)C1)N1CC(O)C1 [Example 7, 2-((R)-3-(4-amino-3-(2-fluoro-4-phenoxyphenyl)-1H-pyrazolo[3,4-d]pyrimidin-1-yl)piperidine-1-carbonyl)-4-(3-hydroxyazetidin-1-yl)-4-methylpent-2-enenitrile]",0.9
3,"CC(C)(C=C(C#N)C(=O)N1CCC[C@H]1Cn1nc(-c2ccc(Oc3ccccc3)cc2F)c2c(N)ncnc21)N1CCNCC1 [Example 9, 2-[(2S)-2-[[4-amino-3-(2-fluoro-4-phenoxy-phenyl)pyrazolo[3,4-d]pyrimidin-1-yl]methyl]pyrrolidine-1-carbonyl]-4-methyl-4-piperazin-1-yl-pent-2-enenitrile]",4.7
4,"CN(C1COC1)C(C)(C)C=C(C#N)C(=O)N1CCC[C@H]1Cn1nc(-c2ccc(Oc3ccccc3)cc2F)c2c(N)ncnc21 [Example 10, 2-[(2S)-2-[[4-amino-3-(2-fluoro-4-phenoxy-phenyl)pyrazolo[3,4-d]pyrimidin-1-yl]methyl]pyrrolidine-1-carbonyl]-4-methyl-4-[methyl(oxetan-3-yl)amino]pent-2-enenitrile]",2.1
5,"CN(C1COC1)C(C)(C)C=C(C#N)C(=O)N1CCC[C@@H](n2nc(-c3ccc(Oc4ccccc4)cc3F)c3c(N)ncnc32)C1 [Example 13, 2-[(3R)-3-[4-amino-3-(2-fluoro-4-phenoxy-phenyl)pyrazolo[3,4-d]pyrimidin-1-yl]piperidine-1-carbonyl]-4-methyl-4-[methyl(oxetan-3-yl)amino]pent-2-enenitrile]",0.6
6,"CCN(C1COC1)C(C)(C)C=C(C#N)C(=O)N1CCC[C@@H](n2nc(-c3ccc(Oc4ccccc4)cc3F)c3c(N)ncnc32)C1 [Example 13a, (R)-2-(3-(4-amino-3-(2-fluoro-4-phenoxyphenyl)-1H-pyrazolo[3,4-d]pyrimidin-1-yl)piperidine-1-carbonyl)-4-(ethyl(oxetan-3-yl)amino)-4-methylpent-2-enenitrile]",0.9
7,"CC(C)(C=C(C#N)C(=O)N1CCC1Cn1nc(-c2ccc(Oc3ccccc3)cc2F)c2c(N)ncnc21)N1CCOCC1 (stereo not shown) [Example 15, 2-[2-[[4-amino-3-(2-fluoro-4-phenoxy-phenyl)pyrazolo[3,4-d]pyrimidin-1-yl]methyl]azetidine-1-carbonyl]-4-methyl-4-morpholino-pent-2-enenitrile]",4.1
8,"CC(C)(C=C(C#N)C(=O)N1CCC[C@@H](n2nc(-c3ccc(Oc4ccccc4)cc3F)c3c(N)ncnc32)C1)N1CCC(O)CC1 [Example 18, (R)-2-(3-(4-amino-3-(2-fluoro-4-phenoxyphenyl)-1H-pyrazolo[3,4-d]pyrimidin-1-yl)piperidine-1-carbonyl)-4-(4-hydroxypiperidin-1-yl)-4-methylpent-2-enenitrile]",0.7
9,"CC(C)(/C=C(\C#N)C(=O)N1CCC[C@@H](n2nc(-c3ccc(Oc4ccccc4)cc3F)c3c(N)ncnc32)C1)N1CC2(COC2)C1 [Example 19, 2-[(3R)-3-[4-amino-3-(2-fluoro-4-phenoxy-phenyl)pyrazolo[3,4-d]pyrimidin-1-yl]piperidine-1-carbonyl]-4-methyl-4-(6-oxa-2-azaspiro[3.3]heptan-2-yl)pent-2-enenitrile]",1.5
10,"CCN1CCN(C(C)(C)C=C(C#N)C(=O)N2CCC[C@@H](n3nc(-c4ccc(Oc5ccccc5)cc4F)c4c(N)ncnc43)C2)CC1 [Example 20, 2-[(3R)-3-[4-amino-3-(2-fluoro-4-phenoxy-phenyl)pyrazolo[3,4-d]-pyrimidin-1-yl]piperidine-1-carbonyl]-4-(4-ethylpiperazin-1-yl)-4-methyl-pent-2-enenitrile]",0.9
11,"CC(C)N1CCN(C(C)(C)C=C(C#N)C(=O)N2CCC[C@@H](n3nc(-c4ccc(Oc5ccccc5)cc4F)c4c(N)ncnc43)C2)CC1 [Example 21, (R)-2-(3-(4-amino-3-(2-fluoro-4-phenoxyphenyl)-1H-pyrazolo[3,4-d]pyrimidin-1-yl)piperidine-1-carbonyl)-4-(4-isopropylpiperazin-1-yl)-4-methylpent-2-enenitrile]",0.7
12,"CC(C)(C=C(C#N)C(=O)N1CCC[C@@H](n2nc(-c3ccc(Oc4ccccc4)cc3F)c3c(N)ncnc32)C1)N1CCN(S(C)(=O)=O)CC1 [Example 25, (R)-2-(3-(4-amino-3-(2-fluoro-4-phenoxyphenyl)-1H-pyrazolo[3,4-d]pyrimidin-1-yl)piperidine-1-carbonyl)-4-methyl-4-(4-(methylsulfonyl)piperazin-1-yl)pent-2-enenitrile]",1.4
13,"CC(C)(C=C(C#N)C(=O)N1CCC[C@H]1Cn1nc(-c2ccc(Oc3ccccc3)cc2F)c2c(N)ncnc21)CN1CCOCC1 [Example 30, (S)-2-(2-((4-amino-3-(2-fluoro-4-phenoxyphenyl)-1H-pyrazolo[3,4-d]pyrimidin-1-yl)methyl)pyrrolidine-1-carbonyl)-4,4-dimethyl-5-morpholinopent-2-enenitrile]",5.2
14,"CCN1CCN(C(C)(C)C=C(C#N)C(=O)N2CCC[C@@H](n3nc(-c4ccc(Oc5ccccc5)cc4F)c4c(N)ncnc43)C2)CC1=O [Example 34, (R)-2-(3-(4-amino-3-(2-fluoro-4-phenoxyphenyl)-1H-pyrazolo[3,4-d]pyrimidin-1-yl)piperidine-1-carbonyl)-4-(4-ethyl-3-oxopiperazin-1-yl)-4-methylpent-2-enenitrile]",1.3

# Target: protein target (Homo sapiens (Human), UniProt Q06187)
# Sequence (Q06187 whole entry): as above
# Assay: Reversibility of binding (compound in solution before and after target perturbation, HPLC-MS/MS)
# Settings: after 5 M guanidine hydrochloride denaturation and trypsin digestion
# Protocol: The following approach was developed to differentiate compounds that form irreversible covalent bond with their targets, such as non-cyano containing acrylamide compounds, from compound that form reversible covalent bond i.e., compounds and/or pharmaceutically acceptable salts of the present disclosure. […] The reactions were then treated with perturbations including both denaturation with 5 M guanidine hydrochloride and digestion with trypsin, disrupting proper folding of the target. […] The concentration of compound in solution was assessed both preceding and following perturbation using high performance liquid chromatography (HPLC) coupled to tandem mass spectrometry.
row,Compound in solution in the denatured or digested state?,SMILES
1,yes,"CN(C1COC1)C(C)(C)C=C(C#N)C(=O)N1CCC[C@H]1Cn1nc(-c2ccc(Oc3ccccc3)cc2F)c2c(N)ncnc21 [Example 10, 2-[(2S)-2-[[4-amino-3-(2-fluoro-4-phenoxy-phenyl)pyrazolo[3,4-d]pyrimidin-1-yl]methyl]pyrrolidine-1-carbonyl]-4-methyl-4-[methyl(oxetan-3-yl)amino]pent-2-enenitrile]"

# Same assay, conditions: native (folded) target, target in excess of compound
row,Compound in solution in the native state?,SMILES
1,no,"CN(C1COC1)C(C)(C)C=C(C#N)C(=O)N1CCC[C@H]1Cn1nc(-c2ccc(Oc3ccccc3)cc2F)c2c(N)ncnc21 [Example 10, 2-[(2S)-2-[[4-amino-3-(2-fluoro-4-phenoxy-phenyl)pyrazolo[3,4-d]pyrimidin-1-yl]methyl]pyrrolidine-1-carbonyl]-4-methyl-4-[methyl(oxetan-3-yl)amino]pent-2-enenitrile]"
